Test results from paper PMC11969438 (Inorganic Chemistry Frontiers, 2025).
“Also recorded” adds a separate entry of the source.

Legend:
THP1-Dual cells = experiment: Intracellular platinum accumulation in vitro by ICP-MS; type: cell-based, human; conditions: 3 h exposure; for cellular platinum accumulation: compared to oxaliplatin
Description: The THP1-Dual cell model was seeded at 1 × 10^6 cells per well in six-well plates. After 24 h of recovery, the compounds were applied at the concentrations indicated in triplicate. After 3 h of drug exposure, the cells were prepared as published previously.[13] […] The lysate was filled up to 8 mL with water. The platinum concentration was determined by ICP-MS analysis. Platinum and rhenium standards were derived from CPI International (Amsterdam, the Netherlands). The total platinum content was determined with an Agilent 7800 quadrupole-based ICP-MS instrument (Agilent Technologies, Tokyo, Japan) equipped with an Agilent SPS 4 autosampler (Agilent Technologies, Tokyo, Japan) and a MicroMist nebulizer at a sample uptake rate of approximately 0.2 mL min^−1. […] Argon was used as a plasma gas (15 L min^−1) and as a carrier gas (∼1.1 L min^−1). The dwell time was set to 0.1 s and the measurements were performed in 12 replicates with 100 sweeps. Rhenium served as an internal standard for platinum.

[1] = Platinum distribution study in vivo by ICP-MS; parameters: species or system CT-26 tumor-bearing BALB/c mice; conditions: i.v., 24 h after second dose; for serum platinum levels: two doses
Description: (§1) Tumor size was determined daily via manual caliper measurement. […] Animals were euthanized via cervical dislocation.
The generation and treatment of tumor-bearing mice are outlined in the section “In vivo syngraft experiments” described above. Mouse tissues were processed as described previously.[13] Briefly, serum was isolated from peripheral blood by centrifugation (900g, 10 min, 4 °C, twice). Tissues were digested in 20% nitric acid and hydrogen peroxide using an open-vessel graphite digestion system. The platinum concentration was determined by ICP-MS analysis; for details see “Intracellular platinum accumulation in vitro by ICP-MS”.

[2] = Hematological analysis 24 h after the second dose; conditions: 24 h after second dose; for anemia: two i.v. doses equimolar to 9 mg kg^−1 oxaliplatin
Description: Mice were kept in groups of four per cage with sterilized paper-based environmental enrichment and food and water ad libitum, under pathogen-free conditions and a controlled environment with a 12 h light–dark cycle. Syngeneic models of colorectal carcinoma were generated via subcutaneous injection of CT-26 cells (0.5 × 10^6 cells in 50 μL of serum-free RPMI-1640 medium) into the right flank of 8–12 weeks old BALB/c mice. […] All animals were euthanized 24 h after the second dose. […] To determine the anticancer efficacy of the investigated compounds, treatment started 4 d after tumor implantation, when all tumors were measurable (>25 mm^3) using a twice-weekly treatment scheme for two weeks. Tumor size was determined daily via manual caliper measurement. The tumor volume was calculated as tumor volume = (length × diameter × diameter)/2. The overall condition, shape, and activity of the animals were assessed daily. Peripheral blood was collected from the submandibular vein in K3E K3EDTA tubes (Greiner Bio-One; Kremsmünster, AUT) on ice and was analyzed for hematological parameters (red blood cells (RBCs), hemoglobin (HGB), hematocrit (HCT), red cell distribution width (RDW), mean corpuscular volume (MCV), white blood cells (WBCs), lymphocytes (LYM), monocytes (MO), granulocytes (GRA), and platelets (PLT) using a Vet ABC hematology analyzer (scil Animal Care GmbH, Viernheim, Germany). EDTA-blood was centrifuged (900g, 10 min) twice and the supernatant (EDTA-plasma) was stored at −20 °C for subsequent cytokine/chemokine analysis using a Luminex detection platform. All animal experiments were performed with humane endpoints based on Federation of European Laboratory Animal Science Associations guidelines and according to the regulations of the Ethics Committee for the Care and Use of Laboratory Animals at the Medical University Vienna (proposal number BMBWF 2023–0.122.324). Animals were euthanized upon reaching a tumor volume of >1500 mm^3, a loss in body weight (>20%), tumor ulceration or other indications of deteriorated health. Animals were euthanized via cervical dislocation.

CT-26 tumors = experiment: Anticancer efficacy in vivo, syngeneic colorectal carcinoma; parameters: species or system BALB/c mice
Description: as §1

[3] = Reduction kinetics with 10 eq. L-ascorbic acid in phosphate buffer, UHPLC; type: physicochemical; conditions: 10 eq. AA, PB pH 7.4, 20 °C, after 24 h
Description: (§2) PB (150 mM, pH 7.4) containing 1 mM platinum compound was incubated at 20 °C, with and without the addition of 10 eq. of AA. The reaction was monitored using a Thermo Scientific Dionex UltiMate 3000 UHPLC system with a Waters Acquity UPLC BEH C18 1.7 μm 3.0 × 50 mm column. Milli-Q water containing 0.1% formic acid and acetonitrile containing 0.1% formic acid were used as eluents. A gradient of 5–95% over 5 min was used with a flow of 0.6 mL min^−1. To evaluate the current state of the reaction, the peak area of the parental complex was used.

[4] = tested on: THP1-Dual, HCT116, HCT116/OxR and CT-26 cells; experiment: MTT-based cell viability assay, 72 h, statements over all investigated cell lines; parameters: species or system human and murine
Description: Cell models were seeded (2–2.5 × 10^3 cells per well) in 96-well plates. After 24 h of recovery, the compounds were applied at the concentrations indicated in triplicate. Cell viability was determined after 72 h of continuous drug incubation using an MTT-based cell viability assay (EZ4U, Biomedica, Vienna, Austria) according to the manufacturer's recommendations. Absorbance was measured at 450 nm (vs. 620 nm as reference) using a multimode microplate reader (Tecan Spark, Zurich, Switzerland). Half-maximal inhibitory concentrations (IC50 values) were derived via interpolation from dose–response curves, modeled with the four-parameter logistic (4PL) nonlinear regression model in GraphPad Prism (La Jolla, CA, USA) from at least three independent experiments.

[5] = Hydrolytic stability in phosphate buffer, UHPLC; type: physicochemical; conditions: 1 mM, 150 mM PB pH 7.4, 20 °C, over 24 h
Description: as §2

| SMILES | cellular platinum accumulation (THP1-Dual cells) | serum platinum levels [1] | red blood cell counts (RBCs), hematocrit (HCT), red cell distribution width (RDW) [2] | anemia [2] | tumor growth (CT-26 tumors; i.v. twice a week for two weeks, equimolar to 9 mg kg^−1 oxaliplatin) | complex remaining intact in presence of AA [3] | cellular platinum content vs oxaliplatin (THP1-Dual cells; 10 μM) | intracellular platinum levels vs oxaliplatin (THP1-Dual cells; 50 μM, without statistical significance) | IC50 ratio prodrug vs free oxaliplatin, maximum over cell models [4] [fold] | stability in PB [5] | liver platinum level relative to tumor ([1]; two doses equimolar to 9 mg kg^−1 oxaliplatin) [fold] | tumor volume (CT-26 tumors; peritumoral (p.t.) application, identical doses as i.v.) |
| --- | --- | --- | --- | --- | --- | --- | --- | --- | --- | --- | --- | --- |
| O=C1[O][Pt]2([NH][C@@H]3CCCC[C@H]3[NH]2)[O]C1=O [oxaliplatin, reference compound] | accumulated dose-dependently | Low serum platinum levels | clearly lowered | anemia | clearly reduced tumor growth |  |  |  |  |  |  |  |
| COCCOCCOCCOCCC(=O)[O][Pt-2]12([O]C(=O)CCC(=O)c3cc4cc(OC)c(OC)cc4s3)([NH2+][C@@H]3CCCC[C@H]3[NH2+]1)[O]C(=O)C(=O)[O]2 [Ox-MSA-PEG-Es, (OC-6-44)-[(1R,2R)-1,2-cyclohexanediamino]-oxalato-[4-(5,6-dimethoxybenzo[b]thiophen-2-yl)-4-oxobutylcarboxylato]-[2,5,8,11-tetraoxatetradecanoato]platinum(IV)] | did not show a comparable amount of platinum hyper-accumulation |  |  |  |  | ~80% | significantly higher platinum content | lower intracellular platinum levels | ≤ 40 | stable |  |  |
| COCCOCCOCCOCCNC(=O)[O][Pt-2]12([O]C(=O)CCC(=O)c3cc4cc(OC)c(OC)cc4s3)([NH2+][C@@H]3CCCC[C@H]3[NH2+]1)[O]C(=O)C(=O)[O]2 [Ox-MSA-PEG-Ca, (OC-6-34)-[(1R,2R)-1,2-cyclohexanediamino]-oxalato-[4-(5,6-dimethoxybenzo[b]thiophen-2-yl)-4-oxobutylcarboxylato]-[3,6,9,12-tetraoxatridecan-1-amino]platinum(IV)] |  | Low serum platinum levels |  | not |  | very well comparable to Ox-MSA-PEG-Es |  |  | ≤ 40 | very well comparable to Ox-MSA-PEG-Es | 9.7 | robust and significant decrease in the tumor volume; also recorded: distinct anticancer activity |
